Reference: paper PMC8214221, “Sequence determinants in the cathelicidin LL-37 that promote inflammation via presentation of RNA to scavenger receptors” (The Journal of Biological Chemistry, 2021)
Residues, ends and D or L forms follow the SMILES beside them.

Test system: normal human epidermal keratinocytes (NHEKs)
Assay: LDH release cytotoxicity assay in keratinocytes
Format: cell-based
Settings: minimal concentration giving 50% LDH release by NHEKs
Source text: Since LL-34 was the minimal truncation mutant of LL-37 that retained both antimicrobial and immune modulatory activity, we prepared a series of synthetic peptides with sequential substitutions of alanine at each amino acid position of the LL-34 parent peptide (Table 1). We compared the minimum inhibitory concentration (MIC) for the LL-34 parent peptide and the alanine mutants (LL-34 peptides—L1A and R34A) against methicillin-resistant Staphylococcus aureus strain USA300 (Fig. 1A). LL-34 peptides were incubated at concentrations of 0 to 100 μM with bacteria. The minimal concentration at which no growth was observed was noted after 18 h of incubation. […] Because of these changes in the MIC against S. aureus between the mutants, we investigated the effective toxicity profile of the peptides in normal human epidermal keratinocytes (NHEKs) by lactate dehydrogenase (LDH) release assay (Table 1). […] Most other peptides were cytotoxic at a minimal concentration of 10 μM, whereas LL-34—K15A was toxic at a concentration of 2.5 μM.
LDH cytotoxicity assay was performed according to manufacturer's instructions (Thermo Fisher Scientific). Culture supernatants from keratinocytes were used fresh for LDH assay after experimental treatments.

**Q.** Which “Minimal cytotoxic concentration in NHEK (LD50)” value (“Minimal cytotoxic concentration” below) does the source give for CC[C@H](C)[C@H](NC(=O)[C@H](CCCCN)NC(=O)[C@H](CCC(=O)O)NC(=O)[C@H](CCCCN)NC(=O)[C@H](CO)NC(=O)[C@H](C)NC(=O)[C@H](CCCNC(=N)N)NC(=O)[C@H](Cc1ccccc1)NC(=O)[C@H](Cc1ccccc1)NC(=O)[C@H](CC(=O)O)NC(=O)CNC(=O)[C@H](CC(C)C)NC(=O)[C@@H](N)CC(C)C)C(=O)NCC(=O)N[C@@H](CCCCN)C(=O)N[C@@H](CCC(=O)O)C(=O)N[C@@H](Cc1ccccc1)C(=O)N[C@@H](CCCCN)C(=O)N[C@@H](CCCNC(=N)N)C(=O)N[C@H](C(=O)N[C@H](C(=O)N[C@@H](CCC(N)=O)C(=O)N[C@@H](CCCNC(=N)N)C(=O)N[C@H](C(=O)N[C@@H](CCCCN)C(=O)N[C@@H](CC(=O)O)C(=O)N[C@@H](Cc1ccccc1)C(=O)N[C@@H](CC(C)C)C(=O)N[C@@H](CCCNC(=N)N)C(=O)N[C@@H](CC(N)=O)C(=O)N[C@@H](CC(C)C)C(=O)N[C@H](C(=O)N1CCC[C@H]1C(=O)N[C@@H](CCCNC(=N)N)C(=O)O)C(C)C)[C@@H](C)CC)C(C)C)[C@@H](C)CC [LL-34—K8A] (H-LLGDFFRASKEKIGKEFKRIVQRIKDFLRNLVPR-OH; N-terminus and C-terminus assumed) here?
**A.** 5 µM

**Q.** How did the “Minimal cytotoxic concentration” value turn out when CC[C@H](C)[C@H](NC(=O)[C@H](CCCCN)NC(=O)[C@H](CCC(=O)O)NC(=O)[C@H](C)NC(=O)[C@H](CO)NC(=O)[C@H](CCCCN)NC(=O)[C@H](CCCNC(=N)N)NC(=O)[C@H](Cc1ccccc1)NC(=O)[C@H](Cc1ccccc1)NC(=O)[C@H](CC(=O)O)NC(=O)CNC(=O)[C@H](CC(C)C)NC(=O)[C@@H](N)CC(C)C)C(=O)NCC(=O)N[C@@H](CCCCN)C(=O)N[C@@H](CCC(=O)O)C(=O)N[C@@H](Cc1ccccc1)C(=O)N[C@@H](CCCCN)C(=O)N[C@@H](CCCNC(=N)N)C(=O)N[C@H](C(=O)N[C@H](C(=O)N[C@@H](CCC(N)=O)C(=O)N[C@@H](CCCNC(=N)N)C(=O)N[C@H](C(=O)N[C@@H](CCCCN)C(=O)N[C@@H](CC(=O)O)C(=O)N[C@@H](Cc1ccccc1)C(=O)N[C@@H](CC(C)C)C(=O)N[C@@H](CCCNC(=N)N)C(=O)N[C@@H](CC(N)=O)C(=O)N[C@@H](CC(C)C)C(=O)N[C@H](C(=O)N1CCC[C@H]1C(=O)N[C@@H](CCCNC(=N)N)C(=O)O)C(C)C)[C@@H](C)CC)C(C)C)[C@@H](C)CC [LL-34—K10A] (H-LLGDFFRKSAEKIGKEFKRIVQRIKDFLRNLVPR-OH; N-terminus and C-terminus assumed) was run?
**A.** 5 µM

**Q.** How did the “Minimal cytotoxic concentration” value turn out when CC[C@H](C)[C@H](NC(=O)[C@H](CCCCN)NC(=O)[C@H](CCC(=O)O)NC(=O)[C@H](CCCCN)NC(=O)[C@H](CO)NC(=O)[C@H](CCCCN)NC(=O)[C@H](CCCNC(=N)N)NC(=O)[C@H](Cc1ccccc1)NC(=O)[C@H](Cc1ccccc1)NC(=O)[C@H](CC(=O)O)NC(=O)CNC(=O)[C@H](CC(C)C)NC(=O)[C@@H](N)CC(C)C)C(=O)NCC(=O)N[C@@H](C)C(=O)N[C@@H](CCC(=O)O)C(=O)N[C@@H](Cc1ccccc1)C(=O)N[C@@H](CCCCN)C(=O)N[C@@H](CCCNC(=N)N)C(=O)N[C@H](C(=O)N[C@H](C(=O)N[C@@H](CCC(N)=O)C(=O)N[C@@H](CCCNC(=N)N)C(=O)N[C@H](C(=O)N[C@@H](CCCCN)C(=O)N[C@@H](CC(=O)O)C(=O)N[C@@H](Cc1ccccc1)C(=O)N[C@@H](CC(C)C)C(=O)N[C@@H](CCCNC(=N)N)C(=O)N[C@@H](CC(N)=O)C(=O)N[C@@H](CC(C)C)C(=O)N[C@H](C(=O)N1CCC[C@H]1C(=O)N[C@@H](CCCNC(=N)N)C(=O)O)C(C)C)[C@@H](C)CC)C(C)C)[C@@H](C)CC [LL-34—K15A] (H-LLGDFFRKSKEKIGAEFKRIVQRIKDFLRNLVPR-OH; N-terminus and C-terminus assumed) was run?
**A.** 2.5 µM

**Q.** For CC[C@H](C)[C@H](NC(=O)[C@H](CCCCN)NC(=O)[C@H](CCC(=O)O)NC(=O)[C@H](CCCCN)NC(=O)[C@H](CO)NC(=O)[C@H](CCCCN)NC(=O)[C@H](CCCNC(=N)N)NC(=O)[C@H](Cc1ccccc1)NC(=O)[C@H](Cc1ccccc1)NC(=O)[C@H](CC(=O)O)NC(=O)CNC(=O)[C@H](CC(C)C)NC(=O)[C@@H](N)CC(C)C)C(=O)NCC(=O)N[C@@H](CCCCN)C(=O)N[C@@H](CCC(=O)O)C(=O)N[C@@H](Cc1ccccc1)C(=O)N[C@@H](C)C(=O)N[C@@H](CCCNC(=N)N)C(=O)N[C@H](C(=O)N[C@H](C(=O)N[C@@H](CCC(N)=O)C(=O)N[C@@H](CCCNC(=N)N)C(=O)N[C@H](C(=O)N[C@@H](CCCCN)C(=O)N[C@@H](CC(=O)O)C(=O)N[C@@H](Cc1ccccc1)C(=O)N[C@@H](CC(C)C)C(=O)N[C@@H](CCCNC(=N)N)C(=O)N[C@@H](CC(N)=O)C(=O)N[C@@H](CC(C)C)C(=O)N[C@H](C(=O)N1CCC[C@H]1C(=O)N[C@@H](CCCNC(=N)N)C(=O)O)C(C)C)[C@@H](C)CC)C(C)C)[C@@H](C)CC [LL-34—K18A] (H-LLGDFFRKSKEKIGKEFARIVQRIKDFLRNLVPR-OH; N-terminus and C-terminus assumed), which “Minimal cytotoxic concentration” value is on record?
**A.** 10 µM

**Q.** For CC[C@H](C)[C@H](NC(=O)[C@H](CCCCN)NC(=O)[C@H](CCC(=O)O)NC(=O)[C@H](CCCCN)NC(=O)[C@H](CO)NC(=O)[C@H](CCCCN)NC(=O)[C@H](CCCNC(=N)N)NC(=O)[C@H](Cc1ccccc1)NC(=O)[C@H](Cc1ccccc1)NC(=O)[C@H](CC(=O)O)NC(=O)CNC(=O)[C@H](CC(C)C)NC(=O)[C@H](C)N)C(=O)NCC(=O)N[C@@H](CCCCN)C(=O)N[C@@H](CCC(=O)O)C(=O)N[C@@H](Cc1ccccc1)C(=O)N[C@@H](CCCCN)C(=O)N[C@@H](CCCNC(=N)N)C(=O)N[C@H](C(=O)N[C@H](C(=O)N[C@@H](CCC(N)=O)C(=O)N[C@@H](CCCNC(=N)N)C(=O)N[C@H](C(=O)N[C@@H](CCCCN)C(=O)N[C@@H](CC(=O)O)C(=O)N[C@@H](Cc1ccccc1)C(=O)N[C@@H](CC(C)C)C(=O)N[C@@H](CCCNC(=N)N)C(=O)N[C@@H](CC(N)=O)C(=O)N[C@@H](CC(C)C)C(=O)N[C@H](C(=O)N1CCC[C@H]1C(=O)N[C@@H](CCCNC(=N)N)C(=O)O)C(C)C)[C@@H](C)CC)C(C)C)[C@@H](C)CC [LL-34—L1A] (H-ALGDFFRKSKEKIGKEFKRIVQRIKDFLRNLVPR-OH; N-terminus and C-terminus assumed), which “Minimal cytotoxic concentration” value is on record?
**A.** 5 µM

**Q.** How did the “Minimal cytotoxic concentration” value turn out when CC[C@H](C)[C@H](NC(=O)[C@H](CCCCN)NC(=O)[C@H](CCC(=O)O)NC(=O)[C@H](CCCCN)NC(=O)[C@H](CO)NC(=O)[C@H](CCCCN)NC(=O)[C@H](CCCNC(=N)N)NC(=O)[C@H](Cc1ccccc1)NC(=O)[C@H](Cc1ccccc1)NC(=O)[C@H](CC(=O)O)NC(=O)CNC(=O)[C@H](C)NC(=O)[C@@H](N)CC(C)C)C(=O)NCC(=O)N[C@@H](CCCCN)C(=O)N[C@@H](CCC(=O)O)C(=O)N[C@@H](Cc1ccccc1)C(=O)N[C@@H](CCCCN)C(=O)N[C@@H](CCCNC(=N)N)C(=O)N[C@H](C(=O)N[C@H](C(=O)N[C@@H](CCC(N)=O)C(=O)N[C@@H](CCCNC(=N)N)C(=O)N[C@H](C(=O)N[C@@H](CCCCN)C(=O)N[C@@H](CC(=O)O)C(=O)N[C@@H](Cc1ccccc1)C(=O)N[C@@H](CC(C)C)C(=O)N[C@@H](CCCNC(=N)N)C(=O)N[C@@H](CC(N)=O)C(=O)N[C@@H](CC(C)C)C(=O)N[C@H](C(=O)N1CCC[C@H]1C(=O)N[C@@H](CCCNC(=N)N)C(=O)O)C(C)C)[C@@H](C)CC)C(C)C)[C@@H](C)CC [LL-34—L2A] (H-LAGDFFRKSKEKIGKEFKRIVQRIKDFLRNLVPR-OH; N-terminus and C-terminus assumed) was run?
**A.** 5 µM

**Q.** CC[C@H](C)[C@H](NC(=O)[C@H](CCCCN)NC(=O)[C@H](CCC(=O)O)NC(=O)[C@H](CCCCN)NC(=O)[C@H](CO)NC(=O)[C@H](CCCCN)NC(=O)[C@H](CCCNC(=N)N)NC(=O)[C@H](Cc1ccccc1)NC(=O)[C@H](Cc1ccccc1)NC(=O)[C@H](CC(=O)O)NC(=O)CNC(=O)[C@H](CC(C)C)NC(=O)[C@@H](N)CC(C)C)C(=O)NCC(=O)N[C@@H](CCCCN)C(=O)N[C@@H](CCC(=O)O)C(=O)N[C@@H](Cc1ccccc1)C(=O)N[C@@H](CCCCN)C(=O)N[C@@H](CCCNC(=N)N)C(=O)N[C@H](C(=O)N[C@H](C(=O)N[C@@H](CCC(N)=O)C(=O)N[C@@H](CCCNC(=N)N)C(=O)N[C@H](C(=O)N[C@@H](CCCCN)C(=O)N[C@@H](CC(=O)O)C(=O)N[C@@H](Cc1ccccc1)C(=O)N[C@@H](CC(C)C)C(=O)N[C@@H](CCCNC(=N)N)C(=O)N[C@@H](C)C(=O)N[C@@H](CC(C)C)C(=O)N[C@H](C(=O)N1CCC[C@H]1C(=O)N[C@@H](CCCNC(=N)N)C(=O)O)C(C)C)[C@@H](C)CC)C(C)C)[C@@H](C)CC [LL-34—N30A] (H-LLGDFFRKSKEKIGKEFKRIVQRIKDFLRALVPR-OH; N-terminus and C-terminus assumed) was tested. Which “Minimal cytotoxic concentration” value did it give?
**A.** 10 µM
